Data set [1] is described as follows: Cytotoxicity against human SKOV3 cells assessed as reduction in cell viability after 48 hrs by MTT assay. The format is functional, cell-based. Conditions: SK-OV-3, 48 h.
The nature of data set [2]: Cytotoxicity against human WI38 cells assessed as reduction in cell viability after 48 hrs by MTT assay. The format is toxicity, cell-based, WI-38.
Data set [3] can be described thus: Cytotoxicity against human HCT116 cells assessed as reduction in cell viability after 48 hrs by MTT assay. The format is functional, cell-based. The following applies: HCT-116, 48 h. Background: Formazan colour is commonly taken as a measure of viable cells.
Data set [4] in a line: Cytotoxicity against human MDA-MB-231 cells assessed as reduction in cell viability after 48 hrs by MTT assay. The format is functional, cell-based. Conditions: MDA-MB-231, 48 h.
Data set [5] in a line: Selectivity ratio of IC50 for human WI38 cells to IC50 for human MDA-MB-231 cells. The format is ADME, cell-based, WI-38. The following applies: WI38 cells versus MDA-MB-231 cells, read-out: Ratio IC50.
Data set [6] in a line: Cytotoxicity against human MCF10A cells assessed as reduction in cell viability after 48 hrs by MTT assay. The format is toxicity, cell-based, MCF-10A.
Data set [7] in a line: Selectivity ratio of IC50 for human WI38 cells to IC50 for human SKOV3 cells. The format is ADME, cell-based, SK-OV-3. Conditions: WI38 cells versus SKOV3 cells, read-out: Ratio IC50.
A short description of data set [8]: Selectivity ratio of IC50 for human MCF10A cells to IC50 for human SKOV3 cells. The format is ADME, cell-based, MCF-10A. The following applies: MCF10A cells versus SKOV3 cells, read-out: Ratio IC50.

As usually defined, the IC50 is the concentration that gives 50% inhibition. Turning to `O=C(/C=C/c1ccc2c(c1)B(O)OC2)c1ccccc1`, the half-inhibitory concentration (IC50) was found to be 3.4 µM in data set [1], 6.1 µM in data set [3] and 2.3 µM in data set [4]. Besides, the half-maximal inhibitory concentration (IC50) at 48 h in data set [2] came to 19.1 µM; in data set [6], 15.9 µM. Further, the selectivity ratio in data set [5] amounted to 8.
Take `O=C(/C=C/c1ccc2c(c1)B(O)OC2)c1ccc(I)cc1`: the half-maximal inhibitory concentration (IC50) in data set [1] worked out at 4.2 µM; in data set [3], 11.6 µM; in data set [4] it was 14.9 µM. The 50% inhibitory concentration (IC50) at 48 h in data set [2] and in data set [6] was more than 100 µM each time. The selectivity ratio in data set [7] and in data set [8] was more than 25 in each case.
Turning to `COc1cc(C(=O)/C=C/c2ccc3c(c2)B(O)OC3)ccc1[N+](=O)[O-]`, the IC50 in data set [1] was determined as 1.7 µM; in data set [3], 4.1 µM; in data set [4] it was 11.4 µM. The IC50 at 48 h amounted to 26 µM in data set [2] and 3.6 µM in data set [6].

The values are drawn from ChEMBL document CHEMBL3867490, “Chalcone-benzoxaborole hybrids as novel anticancer agents” (Bioorg Med Chem Lett, 2016).
